Where a name gives a salt, the structure may show the parent alone. Read-outs that look alike come from different tables or passages of the source.
Columns and labels:
TBK1 = target: T1, TBK1 (Homo sapiens, UniProt Q9UHD2); assay: TBK Biochemical Assay; conditions: read-out: TBK1 IC50
T1 sequence (Q9UHD2 1-729): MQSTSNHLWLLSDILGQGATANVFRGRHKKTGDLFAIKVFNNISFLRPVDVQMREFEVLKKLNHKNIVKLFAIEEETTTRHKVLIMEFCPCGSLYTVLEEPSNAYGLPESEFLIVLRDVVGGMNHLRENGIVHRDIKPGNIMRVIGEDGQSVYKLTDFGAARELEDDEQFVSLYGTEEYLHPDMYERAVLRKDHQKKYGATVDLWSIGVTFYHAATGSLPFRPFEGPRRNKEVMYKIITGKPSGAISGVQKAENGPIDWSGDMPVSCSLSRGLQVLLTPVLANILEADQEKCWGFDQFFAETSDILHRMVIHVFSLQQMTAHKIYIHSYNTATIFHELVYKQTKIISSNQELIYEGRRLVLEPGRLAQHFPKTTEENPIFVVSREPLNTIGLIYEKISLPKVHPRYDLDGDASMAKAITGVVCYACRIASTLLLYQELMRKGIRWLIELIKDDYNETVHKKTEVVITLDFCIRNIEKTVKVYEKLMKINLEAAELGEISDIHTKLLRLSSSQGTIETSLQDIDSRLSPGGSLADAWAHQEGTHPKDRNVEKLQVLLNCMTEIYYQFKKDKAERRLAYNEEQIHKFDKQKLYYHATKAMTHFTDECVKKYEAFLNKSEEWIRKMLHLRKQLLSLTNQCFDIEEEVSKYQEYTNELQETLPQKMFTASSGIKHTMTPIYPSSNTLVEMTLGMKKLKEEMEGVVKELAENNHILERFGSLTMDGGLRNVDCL
Summary of the method: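 TBK1 enzyme and substrate incubated with compounds (10-point 1:4 dilution, top 30 uM final, 1% DMSO) for 90 min at 25° C, then stopped. Substrate/product peaks read by microfluidic mobility-shift (Caliper LabChip); 10 uM staurosporine as full-inhibition control.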

IKKε = target: T2, IKKε (Homo sapiens, UniProt Q14164); assay: IKKe Biochemical Assay; conditions: read-out: IKKε IC50
T2 sequence (Q14164 1-716): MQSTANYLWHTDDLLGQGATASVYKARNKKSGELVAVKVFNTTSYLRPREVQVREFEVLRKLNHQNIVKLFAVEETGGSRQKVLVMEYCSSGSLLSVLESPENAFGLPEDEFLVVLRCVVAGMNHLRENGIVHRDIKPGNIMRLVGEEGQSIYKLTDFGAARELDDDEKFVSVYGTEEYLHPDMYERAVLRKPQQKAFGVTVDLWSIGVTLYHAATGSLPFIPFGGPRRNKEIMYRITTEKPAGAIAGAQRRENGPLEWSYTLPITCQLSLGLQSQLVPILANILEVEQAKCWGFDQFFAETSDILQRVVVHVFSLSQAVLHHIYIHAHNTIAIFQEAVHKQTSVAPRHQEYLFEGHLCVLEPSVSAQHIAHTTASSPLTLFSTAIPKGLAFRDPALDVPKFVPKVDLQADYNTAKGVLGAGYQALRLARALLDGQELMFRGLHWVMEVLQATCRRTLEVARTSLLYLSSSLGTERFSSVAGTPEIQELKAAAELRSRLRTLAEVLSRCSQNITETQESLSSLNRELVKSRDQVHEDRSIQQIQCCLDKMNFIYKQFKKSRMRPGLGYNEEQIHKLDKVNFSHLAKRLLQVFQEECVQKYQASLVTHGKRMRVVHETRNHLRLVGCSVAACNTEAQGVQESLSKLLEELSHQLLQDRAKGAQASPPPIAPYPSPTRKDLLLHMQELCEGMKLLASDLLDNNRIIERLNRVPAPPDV
Summary of the method: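 Recombinant IKKε and substrate were incubated with compound (10-point 1:4 series, top 30 uM final, 1% DMSO) for 90 min at 25° C, then stopped. Substrate-to-product conversion was read by LabChip microfluidic mobility shift; 10 uM staurosporine served as full-inhibition wells.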

[1] = tested on: phosphorylation of the IRF-3 protein in MDA-MB-468 cells; assay: pIRF3 immunocytochemistry cell based assay; conditions: Homo sapiens
Summary of the method: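 MDA-MB-468 cells got compounds (10-point, 3-fold from 10 uM) for 1 h at 37 °C, then 10 ug/ml Poly(I:C) for 2 h. Fixed, permeabilized cells were immunostained for pIRF3 with AlexaFluor488 and counterstained with PI. % phosphorylation was read by laser scanning cytometry, and IC50 curves were fitted.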

[2] = MDA-MB-468 cells, Poly(I:C) stimulation, read-out: pIRF3 IC50
[3] = MDA-MB-468, read-out: pIRF3 IC50

| IC50 (TBK1) [nM] | IC50 (IKKε) [nM] | IC50 [1, 2] [nM] | SMILES | IC50 [1, 3] [nM] |
| --- | --- | --- | --- | --- |
| < 100 | < 100 | < 100 | COc1cc(C(=O)N2CCCCC2)ncc1-c1cc2nccc(-c3ccc(N4CCC(F)C4)c(C#N)c3)c2o1 (stereo in doubt) [Compound 384, 2-((S)-3-Fluoro-pyrrolidin-1-yl)-5-{2-[4-methoxy-6-(piperidine-1-carbonyl)-pyridin-3-yl]-furo[3,2-b]pyridin-7-yl}-benzonitrile] |  |
| < 100 | < 100 | < 100 | COc1cc(C(=O)N2C[C@H]3C[C@@H](O)C[C@H]3C2)ccc1-c1cc2nccc(-c3ccc(OC4CCOCC4)c(C#N)c3)c2o1 [Compound 32, 5-{2-[4-((3aR,5R,6aS)-5-Hydroxy-hexahydro-cyclopenta[c]pyrrole-2-carbonyl)-2-methoxy-phenyl]-furo[3,2-b]pyridin-7-yl}-2-(tetrahydro-pyran-4-yloxy)-benzonitrile] |  |
| 100 to 1000 | 100 to 1000 | 1000 to 5000 | COc1cc(C(=O)N(C)C)ccc1-c1cc2nccc(-c3cc(C#N)c(OC4CCOCC4)cn3)c2o1 [Compound 161, 4-{7-[4-Cyano-5-(tetrahydro-pyran-4-yloxy)-pyridin-2-yl]-furo[3,2-b]pyridin-2-yl}-3-methoxy-N,N-dimethyl-benzamide] |  |
| < 100 | < 100 | 100 to 1000 | COc1cc(C(=O)NC[C@@H](O)CO)ccc1-c1cc2nccc(-c3ccc(OC4CCOCC4)c(C#N)c3)c2o1 [Compound 49, 4-{7-[3-Cyano-4-(tetrahydro-pyran-4-yloxy)-phenyl]-furo[3,2-b]pyridin-2-yl}-N—((R)-2,3-dihydroxy-propyl)-3-methoxy-benzamide] |  |
| < 100 | < 100 | < 100 | COc1cc(C(=O)NCC(C)(C)CN(C)C)ccc1-c1cc2nccc(-c3ccc(NC4CCOCC4)c(C#N)c3)c2o1 [Compound 516, 4-{7-[3-Cyano-4-(tetrahydro-pyran-4-ylamino)-phenyl]-furo[3,2-b]pyridin-2-yl}-N-(3-dimethylamino-2,2-dimethyl-propyl)-3-methoxy-benzamide] |  |
| < 100 | < 100 | < 100 | COc1cc(C(=O)N2CC3CC2CO3)ccc1-c1cc2nccc(-c3ccc(OC4CCOCC4)c(C#N)c3)c2o1 (stereo not drawn) [Compound 1, 5-{2-[2-Methoxy-4-(2-oxa-5-aza-bicyclo[2.2.1]heptane-5-carbonyl)-phenyl]-furo[3,2-b]pyridin-7-yl}-2-(tetrahydro-pyran-4-yloxy)-benzonitrile] |  |
| < 100 | < 100 | 100 to 1000 | COc1cc(C(=O)N2CCC(CO)C2)ccc1-c1cc2nccc(-c3ccc(N4CC[C@H](F)C4)c(C#N)c3)c2o1 (stereo partly drawn) [Compound 76, 2-((S)-3-Fluoro-pyrrolidin-1-yl)-5-{2-[4-(3-hydroxymethyl-pyrrolidine-1-carbonyl)-2-methoxy-phenyl]-furo[3,2-b]pyridin-7-yl}-benzonitrile] |  |
| < 100 | < 100 | 1000 to 5000 | CC(=O)Nc1ccc(-c2cc3nccc(-c4ccc(OC5CCOCC5)c(C#N)c4)c3o2)cc1 [Compound 154] |  |
| < 100 | < 100 | 100 to 1000 | COc1cc(C(=O)NC2CCOCC2O)ccc1-c1cc2nccc(-c3ccc(OC4CCOCC4)c(C#N)c3)c2o1 (stereo not drawn) [Compound 11, 4-{7-[3-Cyano-4-(tetrahydro-pyran-4-yloxy)-phenyl]-furo[3,2-b]pyridin-2-yl}-N-(3-hydroxy-tetrahydro-pyran-4-yl)-3-methoxy-benzamide] |  |

Continued, compound first:

| SMILES | IC50 (TBK1) [nM] | IC50 (IKKε) [nM] | IC50 [1, 2] [nM] | IC50 [1, 3] [nM] |
| --- | --- | --- | --- | --- |
| COc1cc(C(=O)NC(C)(C)CCN(C)C)cnc1-c1cc2nccc(-c3ccc(NC4CCOCC4)c(C#N)c3)c2o1 [Compound 422, 6-(7-[3-cyano-4-[(oxan-4-yl)amino]phenyl]furo[3,2-b]pyridin-2-yl)-N-[4-(dimethylamino)-2-methylbutan-2-yl]-5-methoxypyridine-3-carboxamide] | < 100 | < 100 | < 100 |  |
| COc1cc(C(=O)NC2C3CNCC32)ccc1-c1cc2nccc(-c3ccc(OC4CCOCC4)c(C#N)c3)c2o1 (stereo not drawn) [Compound 84, N-(3-Aza-bicyclo[3.1.0]hex-6-yl)-4-{7-[3-cyano-4-(tetrahydro-pyran-4-yloxy)-phenyl]-furo[3,2-b]pyridin-2-yl}-3-methoxy-benzamide hydrochloride] | < 100 | < 100 | 100 to 1000 |  |
| COc1cc(C(=O)N2CCCC3(CCNC3)C2)ccc1-c1cc2nccc(-c3ccc(OC4CCOCC4)c(C#N)c3)c2o1 (stereo not drawn) [Compound 25, 5-{2-[4-(2,7-Diaza-spiro[4.5]decane-7-carbonyl)-2-methoxy-phenyl]-furo[3,2-b]pyridin-7-yl}-2-(tetrahydro-pyran-4-yloxy)-benzonitrile] | < 100 | < 100 | 100 to 1000 |  |
| COc1cc(C(=O)N(C)C)ccc1-c1cc2nccc(-c3ccc(N4CC[C@H](F)C4)c(C#N)c3)c2o1 [Compound 23, 4-{7-[3-Cyano-4-((S)-3-fluoro-pyrrolidin-1-yl)-phenyl]-furo[3,2-b]pyridin-2-yl}-3-methoxy-N,N-dimethyl-benzamide] | < 100 | < 100 | 100 to 1000 |  |
| COc1cc(C(=O)NC2CC(CN(C)C)C2)ccc1-c1cc2nccc(-c3ccc(OC4CCOCC4)c(C#N)c3)c2o1 (stereo not drawn) [Compound 344, 4-[7-[3-cyano-4-(oxan-4-yloxy)phenyl]furo[3,2-b]pyridin-2-yl]-N-[3-[(dimethylamino)methyl]cyclobutyl]-3-methoxybenzamide] | < 100 | < 100 | 100 to 1000 |  |
| COc1cc(C(=O)N2CC3COCC3C2)ccc1-c1cc2nccc(-c3ccc(OC4CCOCC4)c(C#N)c3)c2o1 (stereo not drawn) [Compound 504] | < 100 | < 100 | 100 to 1000 |  |
| COc1cc(C(=O)NC2CC(N3CCCC3)C2)ccc1-c1cc2nccc(-c3ccc(OC4CCOCC4)c(C#N)c3)c2o1 (stereo not drawn) [Compound 371, 4-(7-(3-cyano-4-(tetrahydro-2H-pyran-4-yloxy)phenyl)furo[3,2-b]pyridin-2-yl)-3-methoxy-N-(3-(pyrrolidin-1-yl)cyclobutyl)benzamide] | < 100 | < 100 |  | 100 to 1000 |
| COc1cc(-c2cc3nccc(-c4ccc(OC5CCOCC5)c(C#N)c4)c3o2)ccc1C(=O)N(C)C [Compound 470, 4-[7-[3-cyano-4-(oxan-4-yloxy)phenyl]furo[3,2-b]pyridin-2-yl]-2-methoxy-N,N-dimethylbenzamide] | < 100 | < 100 |  | 100 to 1000 |
| COc1cc(C(=O)N2C[C@H]3C[C@@H]2CN3C)ccc1-c1cc2nccc(-c3ccc(OC4CCOCC4)c(C#N)c3)c2o1 (stereo in doubt) [Compound 507] | < 100 | < 100 | < 100 |  |
| COc1cc(C(=O)N2CCC(O)C2)ccc1-c1cc2nccc(-c3ccc(OC4CCOCC4)c(C#N)c3)c2o1 (stereo not drawn) [Compound 492, 5-{2-[4-(3-Hydroxy-pyrrolidine-1-carbonyl)-2-methoxy-phenyl]-furo[3,2-b]pyridin-7-yl}-2-(tetrahydro-pyran-4-yloxy)-benzonitrile] | < 100 | < 100 | 100 to 1000 |  |
